Key:
[1] = Compound was evaluated for its activity at group I mGluRs for the generation of [3H]inositol phosphate using [3H]inositol pre-labelled guinea-pig cerebral cortex slices.; assay type: tissue-based, Cavia porcellus
Cavia porcellus = species on record: Cavia porcellus; experiment: Compound was evaluated for inhibition of forskolin-stimulated cAMP generation at Group II and Group III mGluRs; assay type: functional

Row | SMILES | Log EC50 [1] | EC50 (Cavia porcellus) [nM]
1 | N[C@H](C(=O)O)c1cc(O)cc(O)c1 | -4.9 | –
2 | NC(c1cc(O)cc(O)c1)[PH](=O)O (stereo not drawn) | -4.56 | 2090
